{"source": "paper PMC7587356", "about": "“High-Throughput Screening for Inhibitors of the SARS-CoV-2 Protease Using a FRET-Biosensor” (Molecules, 2020)", "key": {"SARS-CoV-2 3CLpro [1]": {"target": "T1, SARS-CoV-2 3CLpro (Severe acute respiratory syndrome coronavirus 2, UniProt P0DTD1)", "experiment": "biochemical", "assay_type": "biochemical"}, "SARS-CoV-2 3CLpro [2]": {"target": "T1, SARS-CoV-2 3CLpro", "experiment": "biochemical", "assay_type": "biochemical", "design": "Replicate_1 / Replicate_2 / mean / mean (LOPAC_screen_w_protease): unit not given here", "conditions": "for inhibition at 5 µM: 4 h"}, "[3]": {"conditions": "with 0.01% Triton X-100; mean ± SD of triplicate; 4 h, 30 °C; read-out: A) EC50 with Triton X-100"}, "[4]": {"conditions": "without Triton X-100; mean ± SD of triplicate; 4 h, 30 °C; read-out: B) EC50 without Triton X-100"}}, "note": "Where two headings read alike, the source gives them in different places.", "data": [{"smiles": "N=c1c[n+](N2CCOCC2)[n-]o1", "note": "[3-Morpholinosydnonimine]", "values": [{"measurement": "Ratio (A/B)", "setting": "SARS-CoV-2 3CLpro [1]", "result": 1.1}, {"measurement": "EC50", "setting": "SARS-CoV-2 3CLpro [1]; [3]", "result": "5.66 ± 0.445", "unit": "µM"}, {"measurement": "EC50", "setting": "SARS-CoV-2 3CLpro [1]; [4]", "result": "4.97 ± 2.38", "unit": "µM"}]}, {"smiles": "Oc1cc(O)c2c(c1)O[C@H](c1ccc(O)c(O)c1)[C@@H](O)C2", "note": "[(+)-Catechin]", "values": [{"measurement": "EC50", "setting": "SARS-CoV-2 3CLpro [1]; [3]", "result": "> 20", "unit": "µM"}, {"measurement": "EC50", "setting": "SARS-CoV-2 3CLpro [1]; [4]", "result": "11.3 ± 6.55", "unit": "µM"}]}, {"smiles": "C=CCN1CCc2cc(O)c(O)cc2C(c2ccccc2)C1", "note": "(racemic) [N-allyl-(±)-SKF 38393]", "values": [{"measurement": "EC50", "setting": "SARS-CoV-2 3CLpro [1]; [3]", "result": "3.34 ± 0.805", "unit": "µM"}, {"measurement": "EC50", "setting": "SARS-CoV-2 3CLpro [1]; [4]", "result": "1.65 ± 0.462", "unit": "µM"}]}, {"smiles": "CC(C)C[C@H](N)CS", "note": "[l-Leucinethiol]", "values": [{"measurement": "Ratio (A/B)", "setting": "SARS-CoV-2 3CLpro [1]", "result": 2.2}, {"measurement": "EC50", "setting": "SARS-CoV-2 3CLpro [1]; [3]", "result": "4.38 ± 0.77", "unit": "µM"}, {"measurement": "EC50", "setting": "SARS-CoV-2 3CLpro [1]; [4]", "result": "1.95 ± 0.11", "unit": "µM"}]}, {"smiles": "Cc1ccc(S(=O)(=O)N[C@@H](CCCCN)C(=O)CCl)cc1", "note": "[TLCK, Tosyl-L-Lys chloromethyl ketone]", "values": [{"measurement": "EC50", "setting": "SARS-CoV-2 3CLpro [1]; [3]", "result": "10.6 ± 0.881", "unit": "µM"}, {"measurement": "EC50", "setting": "SARS-CoV-2 3CLpro [1]; with 0.01% Triton X-100, read-out: EC50", "result": 10.6, "unit": "µM"}, {"measurement": "EC50", "setting": "SARS-CoV-2 3CLpro [1]; [4]", "result": "> 20", "unit": "µM"}]}, {"smiles": "CN1CC[C@@]2(C)c3cc(O)ccc3N(C)[C@@H]12", "note": "[(−)-Eseroline]", "values": [{"measurement": "Ratio (A/B)", "setting": "SARS-CoV-2 3CLpro [1]", "result": 1.3}, {"measurement": "EC50", "setting": "SARS-CoV-2 3CLpro [1]; [3]", "result": "0.994 ± 0.197", "unit": "µM"}, {"measurement": "EC50", "setting": "SARS-CoV-2 3CLpro [1]; [4]", "result": "0.738 ± 0.201", "unit": "µM"}]}, {"smiles": "CN=c1nc(-c2ccccc2)n(-c2ccccc2)s1", "note": "[SCH-202676]", "values": [{"measurement": "Ratio (A/B)", "setting": "SARS-CoV-2 3CLpro [1]; EC50 with Triton X-100 / EC50 without Triton X-100, ratio greater than 2 suggests aggregation-based inhibitor", "result": 6.7}, {"measurement": "EC50", "setting": "SARS-CoV-2 3CLpro [1]; [3]", "result": "0.274 ± 0.073", "unit": "µM"}, {"measurement": "reduction in levels of inhibition upon addition of 0.01% Triton X-100", "setting": "SARS-CoV-2 3CLpro [1]; with vs without 0.01% Triton X-100", "result": "> 2", "unit": "fold"}, {"measurement": "EC50", "setting": "SARS-CoV-2 3CLpro [1]; [4]", "result": "0.041 ± 0.008", "unit": "µM"}]}, {"smiles": "C=CCN1CCc2c(cc(O)c(O)c2Br)C(c2ccccc2)C1", "note": "(stereo not drawn) [R(+)-6-Bromo-APB]", "values": [{"measurement": "EC50", "setting": "SARS-CoV-2 3CLpro [1]; [3]", "result": "> 20", "unit": "µM"}, {"measurement": "EC50", "setting": "SARS-CoV-2 3CLpro [1]; [4]", "result": "> 20", "unit": "µM"}]}, {"smiles": "CN1CCc2c(cc(O)c(O)c2Cl)C(c2cccc(Cl)c2)C1", "note": "(stereo not drawn) [SKF 83565]", "values": [{"measurement": "EC50", "setting": "SARS-CoV-2 3CLpro [1]; [3]", "result": "> 20", "unit": "µM"}, {"measurement": "EC50", "setting": "SARS-CoV-2 3CLpro [1]; [4]", "result": "6.03 ± 3.63", "unit": "µM"}]}, {"smiles": "CC(C)N(CCC(=O)c1ccc2ccccc2c1)Cc1ccccc1", "note": "[ZM 39923]", "values": [{"measurement": "Ratio (A/B)", "setting": "SARS-CoV-2 3CLpro [1]", "result": 1.0}, {"measurement": "EC50", "setting": "SARS-CoV-2 3CLpro [1]; [3]", "result": "0.302 ± 0.038", "unit": "µM"}, {"measurement": "EC50", "setting": "SARS-CoV-2 3CLpro [1]; [4]", "result": "0.289 ± 0.055", "unit": "µM"}]}, {"smiles": "C[N+](C)(C)CCC(=O)c1cccc2ccccc12", "note": "[alpha-NETA, 2-(alpha-Naphthoyl)ethyltrimethylammonium]", "values": [{"measurement": "Ratio (A/B)", "setting": "SARS-CoV-2 3CLpro [1]", "result": 0.9}, {"measurement": "EC50", "setting": "SARS-CoV-2 3CLpro [1]; [3]", "result": "0.227 ± 0.014", "unit": "µM"}, {"measurement": "EC50", "setting": "SARS-CoV-2 3CLpro [1]; [4]", "result": "0.243 ± 0.051", "unit": "µM"}]}, {"smiles": "COCCOC(=O)C1=C(C)NC(C)=C(C(=O)OC(C)C)C1c1cccc([N+](=O)[O-])c1", "note": "(stereo not drawn) [Nimodipine]", "values": [{"measurement": "inhibition at 5 µM", "setting": "SARS-CoV-2 3CLpro [2]; sheet LOPAC_screen_w_protease, LOPAC1280 primary screen with protease, 5 µM compound, mean of the two replicates, read-out: mean", "result": 4.81, "unit": "%"}, {"measurement": "inhibition at 5 µM", "setting": "SARS-CoV-2 3CLpro [2]; sheet LOPAC_screen_w_protease, LOPAC1280 primary screen with protease, 5 µM compound, replicate 1, read-out: Replicate_1", "result": 3.58, "unit": "%"}, {"measurement": "inhibition at 5 µM", "setting": "SARS-CoV-2 3CLpro [2]; sheet LOPAC_screen_w_protease, LOPAC1280 primary screen with protease, 5 µM compound, replicate 2, read-out: Replicate_2", "result": 6.04, "unit": "%"}]}, {"smiles": "O=C(O)C1=CC(=C(c2ccc(O)c(C(=O)O)c2)c2ccc(O)c(C(=O)O)c2)C=CC1=O", "note": "[Aurintricarboxylic acid, reference compound]", "values": [{"measurement": "inhibition at 5 µM", "setting": "SARS-CoV-2 3CLpro [2]; read-out: Replicate_1 (LOPAC screen with protease)", "result": 31.5, "unit": "%"}, {"measurement": "inhibition at 5 µM", "setting": "SARS-CoV-2 3CLpro [2]; read-out: Replicate_2 (LOPAC screen with protease)", "result": 31.9, "unit": "%"}, {"measurement": "inhibition at 5 µM", "setting": "SARS-CoV-2 3CLpro [2]; read-out: mean (LOPAC screen with protease)", "result": 31.7, "unit": "%"}]}, {"smiles": "CC(C)(Sc1ccc(CCN(CCCCC2CCCCC2)C(=O)NC2CCCCC2)cc1)C(=O)O", "note": "[GW7647]", "values": [{"measurement": "mean", "setting": "SARS-CoV-2 3CLpro [2]; sheet LOPAC_screen_w_protease, primary screen with protease, 5 µM, mean of two replicates", "result": -0.2447}, {"measurement": "Replicate_1", "setting": "SARS-CoV-2 3CLpro [2]; sheet LOPAC_screen_w_protease, primary screen with protease, 5 µM, replicate 1", "result": -0.1471}, {"measurement": "Replicate_2", "setting": "SARS-CoV-2 3CLpro [2]; sheet LOPAC_screen_w_protease, primary screen with protease, 5 µM, replicate 2", "result": -0.3423}]}, {"smiles": "Br.C=CCN1CCc2c(cc(O)c(O)c2Br)[C@@H](c2ccccc2)C1", "note": "[R(+)-6-Bromo-APB hydrobromide]", "values": [{"measurement": "mean (LOPAC screen with protease)", "setting": "SARS-CoV-2 3CLpro [2]; sheet LOPAC_screen_w_protease, primary screen at 5 µM, mean of two replicates", "result": 28.8024}, {"measurement": "Replicate_1 (LOPAC screen with protease)", "setting": "SARS-CoV-2 3CLpro [2]; sheet LOPAC_screen_w_protease, primary screen at 5 µM, replicate 1", "result": 26.2193}, {"measurement": "Replicate_2 (LOPAC screen with protease)", "setting": "SARS-CoV-2 3CLpro [2]; sheet LOPAC_screen_w_protease, primary screen at 5 µM, replicate 2", "result": 31.3855}]}, {"smiles": "C[C@H](O)C(=O)C1=Nc2c(nc(N)[nH]c2=O)NC1", "note": "[Sepiapterin]", "values": [{"measurement": "inhibition at 5 µM", "setting": "SARS-CoV-2 3CLpro [2]; sheet LOPAC_screen_w_protease, primary screen with protease, mean of two replicates, read-out: mean", "result": 2.57, "unit": "%"}, {"measurement": "inhibition at 5 µM", "setting": "SARS-CoV-2 3CLpro [2]; sheet LOPAC_screen_w_protease, primary screen with protease, replicate 1, read-out: Replicate_1", "result": 2.59, "unit": "%"}, {"measurement": "inhibition at 5 µM", "setting": "SARS-CoV-2 3CLpro [2]; sheet LOPAC_screen_w_protease, primary screen with protease, replicate 2, read-out: Replicate_2", "result": 2.55, "unit": "%"}]}, {"smiles": "CCS(=O)(=O)Nc1cccc(C(=C2CCCCC2)c2c[nH]cn2)c1", "note": "[A-315456]", "values": [{"measurement": "mean", "setting": "SARS-CoV-2 3CLpro [2]; sheet LOPAC_screen_w_protease, LOPAC1280 primary screen at 5 µM, with protease, mean of the two replicates", "result": 0.823}, {"measurement": "Replicate_1", "setting": "SARS-CoV-2 3CLpro [2]; sheet LOPAC_screen_w_protease, LOPAC1280 primary screen at 5 µM, with protease, replicate 1", "result": 1.277}, {"measurement": "Replicate_2", "setting": "SARS-CoV-2 3CLpro [2]; sheet LOPAC_screen_w_protease, LOPAC1280 primary screen at 5 µM, with protease, replicate 2", "result": 0.3687}]}, {"smiles": "COc1ccc(C(=O)N2CCCC2=O)cc1", "note": "[Aniracetam]", "values": [{"measurement": "inhibition at 5 µM", "setting": "SARS-CoV-2 3CLpro [2]; sheet LOPAC_screen_w_protease, primary screen at 5 µM, mean of two replicates, read-out: mean (LOPAC screen with protease)", "result": 6.69, "unit": "%"}, {"measurement": "inhibition at 5 µM", "setting": "SARS-CoV-2 3CLpro [2]; sheet LOPAC_screen_w_protease, primary screen at 5 µM, replicate 1, read-out: Replicate_1 (LOPAC screen with protease)", "result": 9.93, "unit": "%"}, {"measurement": "inhibition at 5 µM", "setting": "SARS-CoV-2 3CLpro [2]; sheet LOPAC_screen_w_protease, primary screen at 5 µM, replicate 2, read-out: Replicate_2 (LOPAC screen with protease)", "result": 3.46, "unit": "%"}]}]}
